Patent US9440969B2, “Compounds and methods for kinase modulation, and indications therefor” (PLEXXIKON INC., priority 2009, dated 2016)

What was measured:
B-Raf = B-Raf (Homo sapiens, UniProt P15056); test: B-Raf kinase activity assay (AlphaScreen, biotin-MEK1 substrate); settings: 100 μM ATP, 100 nM biotin-MEK1, 45 minutes at room temperature; read-out: Biochemical activity (IC50 μM) B-Raf
Method in brief: (§1)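 AlphaScreen detection of phospho-MEK1 uses anti-phospho-MEK1/2 antibody and donor/acceptor beads, incubated 3 h. The kinase step runs 45 min at room temperature with 0.1 ng enzyme, 100 nM biotin-MEK1 and 100 μM ATP in 50 mM HEPES pH 7.0. IC50 is derived from eight compound concentrations.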

CYP3A4(BFC) = CYP3A4(BFC) (Homo sapiens, UniProt P08684); test: CYP3A4 inhibition (substrate BFC); format: in vitro ADME; settings: read-out: Cyp IC50 (μM) 3A4(BFC)
Method in brief: (§2)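 Human CYP enzymes with fluorogenic substrates and NADPH regeneration, compound preincubated 10 min at 37 °C in 10-point 1:1 dilution series. CYP1A2 0.5 pmol/5 μM CEC, 15 min, 409/460 nm; CYP2C9 1.0 pmol/75 μM MFC, 45 min, 409/530 nm; CYP2D6 1.5 pmol/1.5 μM AMMC, 30 min, 409/530 nm; CYP3A4 1.0 pmol/50 μM BFC, 30 min, 409/460 nm. IC50 from fluorescence vs concentration.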

CYP1A2 = target: T1, CYP1A2 (Homo sapiens, UniProt P05177); test: CYP1A2 inhibition (fluorescent substrate CEC); format: in vitro ADME; settings: read-out: Cyp IC50 (μM) 1A2
T1 sequence (P05177 1-516): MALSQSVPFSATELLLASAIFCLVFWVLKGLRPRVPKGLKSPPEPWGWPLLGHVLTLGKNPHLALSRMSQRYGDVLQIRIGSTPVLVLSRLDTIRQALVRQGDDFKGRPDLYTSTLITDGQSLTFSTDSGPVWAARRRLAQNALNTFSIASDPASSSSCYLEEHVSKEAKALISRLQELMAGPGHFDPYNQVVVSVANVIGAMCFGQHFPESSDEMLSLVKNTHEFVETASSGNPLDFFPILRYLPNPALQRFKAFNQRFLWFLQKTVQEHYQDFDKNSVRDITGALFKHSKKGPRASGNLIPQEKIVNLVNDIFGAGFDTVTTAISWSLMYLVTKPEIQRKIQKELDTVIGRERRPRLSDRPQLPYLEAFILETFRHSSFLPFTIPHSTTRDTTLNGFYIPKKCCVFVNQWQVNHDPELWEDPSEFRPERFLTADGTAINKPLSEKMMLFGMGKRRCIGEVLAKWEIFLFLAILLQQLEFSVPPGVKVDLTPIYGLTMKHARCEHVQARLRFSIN
Method in brief: as §2

CYP2D6 = CYP2D6 (Homo sapiens, UniProt P10635); test: CYP2D6 inhibition (fluorescent substrate AMMC); format: in vitro ADME; settings: read-out: Cyp IC50 (μM) 2D6
Method in brief: as §2

CYP2C9 = CYP2C9 (Homo sapiens, UniProt P11712); test: CYP2C9 inhibition (fluorescent substrate MFC); format: in vitro ADME; settings: read-out: Cyp IC50 (μM) 2C9
Method in brief: as §2

CYP2C19 = CYP2C19 (Homo sapiens, UniProt P33261); test: CYP2C19 inhibition (fluorescent substrate CEC); format: in vitro ADME; settings: read-out: Cyp IC50 (μM) 2C19
B-Raf V600E = B-Raf V600E (Homo sapiens, UniProt P15056, V600E); test: B-Raf V600E kinase activity assay (AlphaScreen, biotin-MEK1 substrate); settings: 100 μM ATP, 100 nM biotin-MEK1, 45 minutes at room temperature, read-out: Biochemical activity (IC50 μM) V600E
Method in brief: as §1

B-Raf, sequence (P15056 whole entry): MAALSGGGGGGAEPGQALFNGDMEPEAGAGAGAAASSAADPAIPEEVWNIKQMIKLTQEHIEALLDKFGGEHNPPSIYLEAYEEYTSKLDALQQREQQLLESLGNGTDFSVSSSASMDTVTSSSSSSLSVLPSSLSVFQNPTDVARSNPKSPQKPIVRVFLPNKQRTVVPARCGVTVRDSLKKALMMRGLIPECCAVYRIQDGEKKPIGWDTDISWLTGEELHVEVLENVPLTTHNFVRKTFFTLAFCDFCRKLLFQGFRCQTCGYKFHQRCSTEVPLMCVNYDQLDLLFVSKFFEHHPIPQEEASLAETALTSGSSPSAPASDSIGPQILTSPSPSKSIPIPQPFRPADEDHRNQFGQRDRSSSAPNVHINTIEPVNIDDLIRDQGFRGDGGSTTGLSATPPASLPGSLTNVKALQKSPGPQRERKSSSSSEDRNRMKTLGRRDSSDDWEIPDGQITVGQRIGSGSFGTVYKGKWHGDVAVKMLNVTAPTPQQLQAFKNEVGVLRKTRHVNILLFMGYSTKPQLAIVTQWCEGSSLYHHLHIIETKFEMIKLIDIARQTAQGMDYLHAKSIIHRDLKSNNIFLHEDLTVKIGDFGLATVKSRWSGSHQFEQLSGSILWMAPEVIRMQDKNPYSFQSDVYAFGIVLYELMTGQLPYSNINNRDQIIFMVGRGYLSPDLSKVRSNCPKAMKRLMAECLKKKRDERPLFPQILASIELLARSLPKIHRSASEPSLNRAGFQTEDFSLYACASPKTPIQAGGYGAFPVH
CYP2D6, sequence (P10635 whole entry): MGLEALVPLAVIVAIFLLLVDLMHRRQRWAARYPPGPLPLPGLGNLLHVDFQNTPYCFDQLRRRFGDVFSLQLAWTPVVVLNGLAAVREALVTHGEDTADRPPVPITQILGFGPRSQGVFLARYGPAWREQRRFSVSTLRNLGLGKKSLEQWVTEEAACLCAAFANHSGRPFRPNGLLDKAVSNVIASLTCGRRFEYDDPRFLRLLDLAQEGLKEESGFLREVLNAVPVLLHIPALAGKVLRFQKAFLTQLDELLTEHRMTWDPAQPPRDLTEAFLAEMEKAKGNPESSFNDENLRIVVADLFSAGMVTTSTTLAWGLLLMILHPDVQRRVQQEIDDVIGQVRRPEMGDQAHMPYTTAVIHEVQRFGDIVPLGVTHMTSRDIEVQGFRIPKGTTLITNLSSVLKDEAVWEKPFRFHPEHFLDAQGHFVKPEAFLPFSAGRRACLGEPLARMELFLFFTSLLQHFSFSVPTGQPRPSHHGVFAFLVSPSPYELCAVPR
B-Raf V600E, sequence (P15056 whole entry V600E): as the sequence (P15056 whole entry) above, with V600E counted along it
CYP2C9, sequence (P11712 whole entry): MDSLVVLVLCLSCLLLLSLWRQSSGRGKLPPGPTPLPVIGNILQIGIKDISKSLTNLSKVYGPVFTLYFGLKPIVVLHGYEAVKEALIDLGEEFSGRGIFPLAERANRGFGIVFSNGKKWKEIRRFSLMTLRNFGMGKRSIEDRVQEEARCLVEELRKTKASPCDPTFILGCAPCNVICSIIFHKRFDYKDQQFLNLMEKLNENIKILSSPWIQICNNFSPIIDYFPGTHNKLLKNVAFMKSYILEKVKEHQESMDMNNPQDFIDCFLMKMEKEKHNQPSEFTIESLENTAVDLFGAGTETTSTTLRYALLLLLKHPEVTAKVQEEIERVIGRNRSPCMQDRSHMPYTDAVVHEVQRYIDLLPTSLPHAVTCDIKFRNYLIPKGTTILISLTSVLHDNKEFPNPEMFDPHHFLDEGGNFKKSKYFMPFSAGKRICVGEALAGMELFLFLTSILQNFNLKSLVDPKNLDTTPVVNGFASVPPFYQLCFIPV
CYP3A4(BFC), sequence (P08684 whole entry): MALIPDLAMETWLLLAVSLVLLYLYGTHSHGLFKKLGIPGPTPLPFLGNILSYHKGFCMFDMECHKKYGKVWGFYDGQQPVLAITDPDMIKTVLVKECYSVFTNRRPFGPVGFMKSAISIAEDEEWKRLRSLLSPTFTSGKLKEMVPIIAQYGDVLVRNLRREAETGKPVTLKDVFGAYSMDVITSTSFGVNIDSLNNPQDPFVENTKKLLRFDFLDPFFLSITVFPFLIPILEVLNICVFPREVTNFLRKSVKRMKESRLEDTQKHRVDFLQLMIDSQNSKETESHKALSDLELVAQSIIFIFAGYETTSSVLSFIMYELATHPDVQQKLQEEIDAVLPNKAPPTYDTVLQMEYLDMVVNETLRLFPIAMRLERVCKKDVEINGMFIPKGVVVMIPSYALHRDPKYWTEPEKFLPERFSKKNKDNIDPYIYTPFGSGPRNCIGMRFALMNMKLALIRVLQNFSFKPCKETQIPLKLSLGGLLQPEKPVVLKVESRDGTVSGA
CYP2C19, sequence (P33261 whole entry): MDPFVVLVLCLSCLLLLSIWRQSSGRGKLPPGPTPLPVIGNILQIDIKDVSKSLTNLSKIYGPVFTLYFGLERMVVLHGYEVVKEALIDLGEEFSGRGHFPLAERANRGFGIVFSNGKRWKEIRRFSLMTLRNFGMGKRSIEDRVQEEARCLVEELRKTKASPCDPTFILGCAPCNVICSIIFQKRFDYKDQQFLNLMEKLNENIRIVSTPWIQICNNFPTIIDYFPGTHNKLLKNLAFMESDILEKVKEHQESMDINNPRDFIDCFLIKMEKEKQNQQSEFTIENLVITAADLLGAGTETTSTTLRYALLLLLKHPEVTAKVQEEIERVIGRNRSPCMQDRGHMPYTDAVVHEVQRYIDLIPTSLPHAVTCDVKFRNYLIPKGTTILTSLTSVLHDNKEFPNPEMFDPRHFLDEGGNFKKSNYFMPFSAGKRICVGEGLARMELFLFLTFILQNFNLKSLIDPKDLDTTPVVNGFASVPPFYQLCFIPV

| SMILES | IC50 (B-Raf) [µM] | IC50 (CYP3A4(BFC)) [µM] | IC50 (CYP1A2) [µM] | IC50 (CYP2D6) [µM] | IC50 (CYP2C9) [µM] | IC50 (CYP2C19) [µM] | IC50 (B-Raf V600E) [µM] |
| --- | --- | --- | --- | --- | --- | --- | --- |
| CCCS(=O)(=O)Nc1ccc(F)c(C(=O)c2c[nH]c3ncc(-c4ccc5cncnc5c4)cc23)c1F [P-0025, Propane-1-sulfonic acid [2,4-difluoro-3-(5-quinazolin-7-yl-1H-pyrrolo[2,3-b]pyridine-3-carbonyl)-phenyl]-amide] | < 0.1 | > 10 | > 10 | > 10 | 5 to 10 | > 10 | < 0.1 |
| CCCS(=O)(=O)Nc1ccc(F)c(C(=O)c2c[nH]c3ncc(-c4cnn(C5CCNCC5)c4)cc23)c1F [P-1002, Propane-1-sulfonic acid {2,4-difluoro-3-[5-(1-piperidin-4-yl-1H-pyrazol-4-yl)-1H-pyrrolo[2,3-b]pyridine-3-carbonyl]-phenyl}-amide] | < 0.1 | > 10 | > 10 | > 10 | > 10 | > 10 | < 0.1 |
| O=C(c1c(F)ccc(NS(=O)(=O)c2ccc(C(F)(F)F)cc2)c1F)c1c[nH]c2ncc(-c3cnn(C4CCNCC4)c3)cc12 [P-1004, N-{2,4-Difluoro-3-[5-(1-piperidin-4-yl-1H-pyrazol-4-yl)-1H-pyrrolo[2,3-b]pyridine-3-carbonyl]-phenyl}-4-trifluoromethyl-benzenesulfonamide] | < 0.1 | 5 to 10 | > 10 | > 10 | > 10 | > 10 | < 0.1 |
| CCCS(=O)(=O)Nc1ccc(F)c(C(=O)c2c[nH]c3ncc(-c4csc(-n5ccnc5C)n4)cc23)c1F [P-1101, Propane-1-sulfonic acid (2,4-difluoro-3-{5-[2-(2-methyl-imidazol-1-yl)-thiazol-4-yl]-1H-pyrrolo[2,3-b]pyridine-3-carbonyl}-phenyl)-amide] | < 0.1 | > 10 | > 10 | > 10 | < 5 | > 10 | < 0.1 |
| Cc1ccc(-c2cnc3[nH]cc(C(=O)c4c(F)ccc(NS(=O)(=O)c5cc(F)ccc5F)c4F)c3c2)cn1 [P-1408, N-{2,4-Difluoro-3-[5-(6-methyl-pyridin-3-yl)-1H-pyrrolo[2,3-b]pyridine-3-carbonyl]-phenyl}-2,5-difluoro-benzenesulfonamide] | < 0.1 | > 10 | > 10 | > 10 | 5 to 10 | > 10 | < 0.1 |
| Cc1ncc(-c2cnc3[nH]cc(C(=O)c4c(F)ccc(NS(=O)(=O)c5cc(F)ccc5F)c4F)c3c2)cn1 [P-1503, N-{2,4-Difluoro-3-[5-(2-methyl-pyrimidin-5-yl)-1H-pyrrolo[2,3-b]pyridine-3-carbonyl]-phenyl}-2,5-difluoro-benzenesulfonamide] | < 0.1 | > 10 | > 10 | > 10 | > 10 | > 10 | < 0.1 |
